test system: Daudi cells (AID positive); test: Compound primary screening: cell death in AID positive Daudi cells (Cell-Titer Glo, Day 7); format: cell-based; details: Homo sapiens, 168 h; Daudi cells, AID positive; cell death on Day 7, Cell-Titer Glo; read-out: Cellular activity in AID + (Daudi)
Summary of the method: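 AID-positive Daudi cells were seeded at 1250 cells per well and treated with serially diluted compound delivered from a DMSO/media master plate. Cultures were incubated at 37 °C, and cell death was measured on Day 7 with Cell-Titer Glo luminescence.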

Row | SMILES | EC50 [nM]
1 | CCNS(=O)(=O)c1cc(C(=O)Nc2ncc[nH]2)ccc1-c1cnc([C@H]2CC[C@H](NC(=O)OC(C)C)CC2)s1 [Compound 94, isopropyl trans-N-[4-[5-[2-(ethylsulfamoyl)-4-(1H-imidazol-2-ylcarbamoyl)phenyl]thiazol-2-yl]cyclohexyl]carbamate] | < 100
2 | CC(C)OC(=O)N[C@H]1CC[C@H](c2ncc(-c3ccc(Nc4ncc[nH]4)cc3S(=O)(=O)NC(C)(C)C)s2)CC1 [Compound 38, isopropyl trans-N-[4-[5-[2-(tert-butylsulfamoyl)-4-(1H-imidazol-2-ylamino)phenyl]thiazol-2-yl]cyclohexyl]carbamate] | < 100
3 | COc1ccc(-c2cnc([C@H]3CC[C@H](NC(=O)OC(C)C)CC3)s2)c(S(=O)(=O)NC(C)(C)C)c1 [Compound 28, isopropyl (trans-4-(5-(2-(N-(tert-butyl)sulfamoyl)-4-methoxyphenyl)thiazol-2-yl)cyclohexyl)carbamate] | > 10000
4 | CCNS(=O)(=O)c1cc(Nc2cc(C)cnn2)ccc1-c1cnc([C@H]2CC[C@H](NC(=O)OC(C)C)CC2)s1 [Compound 161, isopropyl trans-N-[4-[5-[2-(ethylsulfamoyl)-4-[(5-methylpyridazin-3-yl)amino]phenyl]thiazol-2-yl]cyclohexyl]carbamate] | < 100
5 | CCNS(=O)(=O)c1cc(NC2(CC(C)C)COC2)ccc1-c1cnc([C@H]2CC[C@H](NC(=O)OC(C)C)CC2)s1 [Compound 70, isopropyl trans-N-[4-[5-[2-(ethylsulfamoyl)-4-[(3-isobutyloxetan-3-yl)amino]phenyl]thiazol-2-yl]cyclohexyl]carbamate] | 100 to 1000
6 | CCNS(=O)(=O)c1cc(CNc2ncco2)ccc1-c1cnc([C@H]2CC[C@H](NC(=O)OC(C)C)CC2)s1 [Compound 74, isopropyl trans-N-[4-[5-[2-(ethylsulfamoyl)-4-[(oxazol-2-ylamino)methyl]phenyl]thiazol-2-yl]cyclohexyl]carbamate] | 100 to 1000
7 | CCNS(=O)(=O)c1cc(N(C)CCO)ccc1-c1cnc(C2CCC(NC(=O)OC(C)C)CC2)s1 (stereo not drawn) [Compound 131, isopropyl trans-N-[4-[5-[2-(ethylsulfamoyl)-4-[(2-hydroxyethyl) (methyl))amino]phenyl]thiazol-2-yl]cyclohexyl]carbamate] | < 100
8 | CC(C)OC(=O)N[C@H]1CC[C@H](c2ncc(-c3ccc(-c4ccc(C#N)nc4)cc3S(=O)(=O)NC(C)(C)C)s2)CC1 [Compound 18, isopropyl (trans-4-(5-(2-(N-(tert-butyl)sulfamoyl)-4-(6-cyanopyridin-3-yl)phenyl)thiazol-2-yl)cyclohexyl)carbamate] | 1000 to 10000
9 | CCNS(=O)(=O)c1cc(Nc2ccnn2C(C)C)ccc1-c1cnc([C@H]2CC[C@H](NC(=O)OC(C)(C)C)CC2)s1 [Compound 170, tert-butyl trans-N-[4-[5-[2-(ethylsulfamoyl)-4-[(2-isopropylpyrazol-3-yl)amino]phenyl]thiazol-2-yl]cyclohexyl]carbamate] | 100 to 1000
10 | CCNS(=O)(=O)c1cc(CC(=O)N2CCCCC2)ccc1-c1cnc([C@H]2CC[C@H](NC(=O)OC(C)C)CC2)s1 [Compound 83, isopropyl trans-N-[4-[5-[4-[2-oxo-2-(piperidin-1-yl)ethyl]-2-(ethyl-sulfamoyl)phenyl]thiazol-2-yl]cyclohexyl]carbamate] | 100 to 1000
11 | CCNS(=O)(=O)c1cc(N(C)CCOC)ccc1-c1cnc(C2CCC(NC(=O)OC(C)C)CC2)s1 (stereo not drawn) [Compound 132, isopropyl trans-N-[4-[5-[2-(ethylsulfamoyl)-4-[(2-methoxyethyl) (methyl))amino]phenyl]thiazol-2-yl]cyclohexyl]carbamate] | 100 to 1000
12 | CCNS(=O)(=O)c1cc(-c2ncc[nH]2)ccc1-c1cnc([C@H]2CC[C@H](NC(=O)OC(C)C)CC2)s1 [Compound 75, isopropyl trans-N-[4-[5-[2-(ethylsulfamoyl)-4-(1H-imidazol-2-yl)phenyl]thiazol-2-yl]cyclohexyl]carbamate] | 1000 to 10000
13 | Cc1[nH]ncc1-c1ccc(-c2cnc([C@H]3CC[C@H](NC(=O)OC(C)C)CC3)s2)c(S(=O)(=O)NC(C)(C)C)c1 [Compound 17, isopropyl (trans-4-(5-(2-(N-(tert-butyl)sulfamoyl)-4-(5-methyl-1H-pyrazol-4-yl)phenyl)thiazol-2-yl)cyclohexyl)carbamate] | 1000 to 10000
14 | CCNS(=O)(=O)c1cc(C(=O)N2CCCC2)ccc1-c1cnc([C@H]2CC[C@H](NC(=O)OC(C)C)CC2)s1 [Compound 95, isopropyl trans-N-[4-[5-[4-pyrrolidin-1-ylcarbonyl-2-(ethylsulfamoyl)phenyl]thiazol-2-yl]cyclohexyl]carbamate] | 100 to 1000
15 | CC(C)COCc1ccc(-c2cnc([C@H]3CC[C@H](NC(=O)OC4COC4)CC3)s2)c(S(=O)(=O)NC(C)(C)C)c1 [Compound 34, oxetan-3-yl trans-N-[4-[5-[2-(tert-butylsulfamoyl)-4-(isobutoxymethyl)phenyl]thiazol-2-yl]cyclohexyl]carbamate] | 1000 to 10000
16 | CC(C)OC(=O)N[C@H]1CC[C@H](c2ncc(-c3ccc(-c4ccc5ncsc5c4)cc3S(=O)(=O)NC(C)(C)C)s2)CC1 [Compound 15, isopropyl (trans-4-(5-(4-(benzo[d]thiazol-6-yl)-2-(N-(tert-butyl)sulfamoyl)phenyl)thiazol-2-yl)cyclohexyl)carbamate] | 1000 to 10000
17 | CCNS(=O)(=O)c1cc(Nc2ccccn2)ccc1-c1cnc([C@H]2CC[C@H](NC(=O)OC(C)C)CC2)s1 [Compound 126, isopropyl trans-N-[4-[5-[2-(ethylsulfamoyl)-4-[(pyridin-2-yl)amino]phenyl]thiazol-2-yl]cyclohexyl]carbamate] | < 100
18 | CCNS(=O)(=O)c1cc(NC2(C)CNC2)ccc1-c1cnc([C@H]2CC[C@H](NC(=O)OC(C)C)CC2)s1 [Compound 147, isopropyl trans-N-[4-[5-[2-(ethylsulfamoyl)-4-[(3-methylazetidin-3-yl)amino]phenyl]thiazol-2-yl]cyclohexyl]carbamate] | 1000 to 10000
19 | CCNS(=O)(=O)c1cc(Nc2ccn[nH]2)ccc1-c1cnc([C@H]2CC[C@H](NC(=O)OC(C)C)CC2)s1 [Compound 121, isopropyl trans-N-[4-[5-[2-(ethylsulfamoyl)-4-[(1H-pyrazol-5-yl)amino]phenyl]thiazol-2-yl]cyclohexyl]carbamate] | < 100
20 | CC(C)OC(=O)N[C@H]1CC[C@H](c2ncc(-c3ccc(-c4cccnc4)cc3S(=O)(=O)NC(C)(C)C)s2)CC1 [Compound 5, isopropyl (trans-4-(5-(2-(N-(tert-butyl)sulfamoyl)-4-(pyridin-3-yl)phenyl)thiazol-2-yl)cyclohexyl)carbamate] | 1000 to 10000
21 | CCNS(=O)(=O)c1cc(Nc2cn(C(C)C)cn2)ccc1-c1cnc([C@H]2CC[C@H](NC(=O)OC(C)C)CC2)s1 [Compound 139, isopropyl trans-N-[4-[5-[2-(ethylsulfamoyl)-4-[(1-isopropyl-1H-imidazol-4-yl)amino]phenyl]thiazol-2-yl]cyclohexyl]carbamate] | < 100
22 | CC(C)NC(=O)Cc1ccc(-c2cnc([C@H]3CC[C@H](NC(=O)OC(C)C)CC3)s2)c(S(=O)(=O)NC(C)(C)C)c1 [Compound 40, isopropyl trans-N-[4-[5-[2-(tert-butylsulfamoyl)-4-[2-(isopropylamino)-2-oxo-ethyl]phenyl]thiazol-2-yl]cyclohexyl]carbamate] | < 100
23 | CC(C)OC(=O)N[C@H]1CC[C@H](c2ncc(-c3ccc(Nc4nnc[nH]4)cc3S(=O)(=O)NC(C)(C)C)s2)CC1 [Compound 151, isopropyl trans-N-[4-[5-[2-(tert-butylsulfamoyl)-4-(4H-1,2,4-triazol-3-ylamino)phenyl]thiazol-2-yl]cyclohexyl]carbamate] | < 100
24 | CCNS(=O)(=O)c1cc(Nc2ncccn2)ccc1-c1cnc([C@H]2CC[C@H](NC(=O)OC(C)C)CC2)s1 [Compound 127, isopropyl trans-N-[4-[5-[2-(ethylsulfamoyl)-4-[(pyrimidin-2-yl)amino]phenyl]thiazol-2-yl]cyclohexyl]carbamate] | 100 to 1000
25 | CC(C)OC(=O)N[C@H]1CC[C@H](c2ncc(-c3ccc(-c4ccc(CO)nc4)cc3S(=O)(=O)NC(C)(C)C)s2)CC1 [Compound 20, isopropyl (trans-4-(5-(2-(N-(tert-butyl)sulfamoyl)-4-(6-(hydroxymethyl)pyridin-3-yl)phenyl)thiazol-2-yl)cyclohexyl)carbamate] | 1000 to 10000
26 | CC(C)OC(=O)N[C@H]1CC[C@@H](c2ncc(-c3ccc(Nc4ncc[nH]4)cc3S(=O)(=O)NC(C)(C)C)s2)CC1 [Compound 110, isopropyl cis-N-[4-[5-[2-(tert-butylsulfamoyl)-4-(1H-imidazol-2-ylamino)phenyl]thiazol-2-yl]cyclohexyl]carbamate] | 100 to 1000
27 | CC(C)OC(=O)N[C@H]1CC[C@H](c2ncc(-c3ccc(Nc4ncc[nH]4)cc3S(N)(=O)=O)s2)CC1 [Compound 90, isopropyl trans-N-[4-[5-[4-(1H-imidazol-2-ylamino)-2-sulfamoyl-phenyl]thiazol-2-yl]cyclohexyl]carbamate] | 100 to 1000
28 | CC(C)OC(=O)N[C@H]1CC[C@H](c2ncc(-c3ccc(Nc4cccnn4)cc3S(=O)(=O)NC(C)(C)C)s2)CC1 [Compound 174, isopropyl trans-N-[4-[5-[2-(tert-butylsulfamoyl)-4-(pyridazin-3-ylamino)phenyl]thiazol-2-yl]cyclohexyl]carbamate] | 100 to 1000
29 | CCNS(=O)(=O)c1cc(N2CC(OC(C)C)C2)ccc1-c1cnc([C@H]2CC[C@H](NC(=O)OC(C)C)CC2)s1 [Compound 114, isopropyl trans-N-[4-[5-[2-(ethylsulfamoyl)-4-[3-isopropoxyazetidin-1-yl]phenyl]thiazol-2-yl]cyclohexyl]carbamate] | 100 to 1000

same assay, conditions: Homo sapiens, Daudi, 168 h, read-out: Cellular activity in AID + (Daudi)

Row | SMILES | EC50 [nM]
30 | CCNS(=O)(=O)c1cc(Cc2ncco2)ccc1-c1cnc([C@H]2CC[C@H](NC(=O)OC(C)C)CC2)s1 [Compound 103, isopropyl trans-N-[4-[5-[2-(ethylsulfamoyl)-4-(oxazol-2-ylmethyl)phenyl]thiazol-2-yl]cyclohexyl]carbamate] | 100 to 1000
